# Source: US8188138B2, “Sulphonylpyrrole hydrochloride salts as histone deacetylases inhibitors” (4SC AG, priority 2005, dated 2012)
# Read-outs that look alike come from different tables or passages of the source.
# What was measured:
# [1] = tested on: broad selection of non-malignant cell lines and fully transformed malignant cancer cell lines; assay: Anti-proliferative activity across cell line panel (Alamar Blue); type: cell-based; details: mean over non-malignant and malignant cell lines
# Description: (§1) The anti-proliferative activity of the histone deacetylase inhibitory compounds as described herein, was evaluated using the following cell lines: HeLa and HeLa—KB (cervical carcinoma), H460 (non small cell lung cancer), A549 (non-small cell lung cancer), MCF7 (breast carcinoma), MCF10A (normal, non tumorigenic breast epithelial), MDA-MB468 (breast carcinoma), MDA-MB435 (breast carcinoma), MDA-MB231 (breast carcinoma), SKBR-3 (breast carcinoma), SKOV-3 (ovarial carcinoma), A-2780 (ovarial carcinoma), RKO (colon carcinoma), HCT-15 (colon carcinoma), HCT-116 (colon carcinoma), PC3 (prostate carcinoma), BPH1 (benign prostate hyperplasia), AsPC1 (pancreatic carcinoma), Cal27 (tongue carcinoma), A-431 (vulva carcinoma), HeclA (endometrial carcinoma), Saos-2 (osteosarcoma), U87MG (glioblastoma), WM266-4 (melanoma), K562 (chronic myeloid carcinoma), EOL1 (acute hypereosinophilic myeloid leukemia), CCRF-CEM and CCRF-CEM VCR1000 (acute lymphoblastic leukemia sensitive and resistant towards Vincristine). For quantification of cellular proliferation/living cells the Alamar Blue (Resazurin) cell viability assay was applied (O'Brien et al. Eur J Biochem 267, 5421-5426, 2000). In this assay Resazurin is reduced to the fluorescent resorufin by cellular dehydrogenase activity, correlating with viable, proliferating cells. The examples were dissolved as 20 mM solutions in dimethylsulfoxide (DMSO) and subsequently diluted in semi-logarithmic steps. Cell lines were seeded at respective density into 96 well flat bottom plates in a volume of 200 μl per well. 24 hours after seeding 1 μl each of the compound dilutions were added into each well of the 96 well plate. Each compound dilution was tested as quadruplicates. Wells containing untreated control cells were filled with 200 μl DMEM medium containing 0.5% v:v DMSO. The cells were then incubated with the substances for 72 hours at 37° C. in a humidified atmosphere containing 5% carbon dioxide. To determine the viability of the cells, 20 μl of an Resazurin solution (Sigma; 90 mg/l) were added. After 4 hours incubation at 37° C. the fluorescence was measured at an extinction of 544 nm and an emission of 590 nm. For the calculation of the cell viability the emission value from untreated cells was set as 100% viability and the emission rates of treated cells were set in relation to the values of untreated cells. Viabilities were expressed as % values. The corresponding IC50 values of the compounds for cytotoxic activity are determined from the concentration-effect curves by means of non-linear regression.
# A549 cell line = assay: Combination experiment with Trail in A549; type: cell-based; details: example at about its IC50 combined with Trail
# Description: A549 non-small cell lung cancer, MDA-MB468 breast cancer and […] colorectal cancer cell lines were pretreated with the examples for 4 h before adding the chemotherapeutic agents or Trail and further incubation for 72 h total. The IC50 values of these combinations were determined from concentration-effect curves and compared to IC50 values of cell treated with the anti-cancer agent only.
# [2] = tested on: HeLa cervical carcinoma cells; assay: Cellular cytotoxicity assay (Alamar Blue), HeLa; type: cell-based; details: Homo sapiens, 72 h, range stated for the listed group
# Description: as §1
# [3] = tested on: MDA-MB468 breast cancer cells; assay: Breast cancer cell differentiation assay (Nile Red, flow cytometry); type: cell-based; details: 24 h; for Neutral & phospholipids (%): differentiated cells; for Phospholipids (%): undifferentiated cells
# Description: For quantification of MDA-MB468 breast cancer cell differentiation (described by Munster et al. Canc. Res. 61(23), pp 8492, 2001), 1× E6 cells were seeded in 10 cm cell culture dishes and, after cultivation for 24 h, treated with HDI for further 24 h. Finally, cells were collected by trypsination, washed twice with PBS and resuspended in 1 ml of staining solution ([…] Nile Red in PBS). After incubation for at least 5 min at room temperature, cells were analysed by flow cytometry on a FACS Calibur device (Ex 488 nm, Em. at 530 nm/FL-1 and >630 nm/FL-3). From respective histograms the percentage of cells with fluorescence at 650 nm (phospholipids) and 530 nm+650 nm (phospho- and neutral lipids) were calculated. For microscopic analysis, MDA-MB468 cells were cultivated on two-well chamber slides, treated with test compound for 24 h, fixed with 1.5 vol % glutaraldehyde/PBS and finally treated with staining solution. After washing with PBS, cells were analysed by fluorescence microscopy.
# The percentage of differentiated cells with neutral and phospholipids as well as undifferentiated cells with phospholipids only are summarized in the table 5.
# [4] = tested on: RKO colon carcinoma cells; assay: Cell-cycle dependent cytotoxicity, RKO exop21 cell system; type: cell-based; details: Homo sapiens, 72 h, range stated for the listed group
# Description: For determination of cell-cycle dependent cytotoxicity, the RKO exop21 cell system was applied (Schmidt et al. Oncogene 19: 2423-2429, 2000). Briefly, RKO cells with/without p21^waf1 expression (2×10^4 cells/well induced, 6×10^3 cells/well not induced) were treated with the examples for 72 h and metabolic activity quantified as described before. The expression of p21^waf1 was induced by treatment with Pronasterone A, causing a complete proliferation arrest of RKO cells in the G1 and G2 phases of the cell division cycle.
# [5] = arrested RKO cells, p21waf1 expressed, read-out: RKO arrested (p21^waf1 expressed) IC50
# [6] = proliferating RKO cells, read-out: RKO proliferating IC50
melting point [°C],Compound,IC50 [2] [nM],further results
,"CN(C)Cc1ccc(S(=O)(=O)n2ccc(/C=C/C(=O)NO)c2)cc1 [Compound 10, (E)-3-[1-(4-Dimethylaminomethyl-benzenesulfonyl)-1H-pyrrol-3-yl]-N-hydroxy-acrylamide]",70 to 5000,"IC50 [1]: 4600 nM; Effect of combination with Trail (A549 cell line): synergism is highly likely; Neutral & phospholipids (%) ([3]; 2 μM): 55.5%; Phospholipids (%) ([3]; 2 μM): 41.6%; Neutral & phospholipids (%) ([3]; 5 μM): 70.2%; Phospholipids (%) ([3]; 5 μM): 25.2%; IC50 [4, 5]: 450 to 15000 nM; IC50 [4, 6]: 150 to 5100 nM"
232.3 to 240.9,"Nc1ccccc1NC(=O)/C=C/c1ccn(S(=O)(=O)c2ccc(-c3cn[nH]c3)cc2)c1 [Compound 22, (E)-N-(2-Amino-phenyl)-3-{1-[4-(1H-pyrazol-4-yl)-benzenesulfonyl]-1H-pyrrol-3-yl}-acrylamide]",70 to 5000,
114 to 159.4,"O=C(/C=C/c1ccn(S(=O)(=O)c2cccc(-c3ccccc3)c2)c1)NO [Compound 23, (E)-3-[1-(Biphenyl-3-sulfonyl)-1H-pyrrol-3-yl]-N-hydroxy-acrylamide]",70 to 5000,
,"O=C(/C=C/c1ccn(S(=O)(=O)c2ccc(CNCc3ccccc3)cc2)c1)NO [Compound 13, (E)-3-{1-[4-(Benzylamino-methyl)-benzenesulfonyl]-1H-pyrrol-3-yl}-N-hydroxy-acrylamide]",70 to 5000,
227 to 228.6,"NCc1ccc(S(=O)(=O)n2ccc(/C=C/C(=O)NO)c2)cc1 [Compound 17, (E)-3-[1-(4-Aminomethyl-benzenesulfonyl)-1H-pyrrol-3-yl]-N-hydroxy-acrylamide]",70 to 5000,
,"O=C(/C=C/c1ccn(S(=O)(=O)c2ccc(-c3cn[nH]c3)cc2)c1)NO [Compound 19, (E)-N-Hydroxy-3-[1-[4-(1H-pyrazol-4-yl)-benzenesulfonyl]-1H-pyrrol-3-yl]acrylamide]",70 to 5000,
,"O=C(/C=C/c1ccn(S(=O)(=O)c2ccc(CNCc3cccnc3)cc2)c1)NO [Compound 11, (E)-N-Hydroxy-3-[1-(4-{[(pyridin-3-ylmethyl)-amino]-methyl}-benzenesulfonyl)-1H-pyrrol-3-yl]-acrylamide]",70 to 5000,
,"O=C(/C=C/c1ccn(S(=O)(=O)c2ccc(CN(CCO)CCc3cc4ccccc4[nH]3)cc2)c1)NO [Compound 28, (E)-N-Hydroxy-3-{1-[4-({(2-hydroxy-ethyl)-[2-(1H-indol-2-yl)-ethyl]-amino}-methyl)-benzenesulfonyl]-1H-pyrrol-3-yl}-acrylamide]",70 to 5000,
,"O=C(/C=C/c1ccn(S(=O)(=O)c2ccc(CNCc3ccc4[nH]ccc4c3)cc2)c1)NO [Compound 15, (E)-N-Hydroxy-3-[1-(4-{[(1H-indol-5-ylmethyl)-amino]-methyl}-benzenesulfonyl)-1H-pyrrol-3-yl]-acrylamide]",70 to 5000,
168 to 170,"O=C(/C=C/c1ccn(S(=O)(=O)c2ccc(CN3CCOCC3)cc2)c1)NO [Compound 27, (E)-N-Hydroxy-3-[1-(4-morpholin-4-ylmethyl-benzenesulfonyl)-1H-pyrrol-3-yl]-acrylamide]",70 to 5000,
,"O=C(/C=C/c1ccn(S(=O)(=O)c2ccc(CNCc3c[nH]c4ccccc34)cc2)c1)NO [Compound 12, (E)-N-Hydroxy-3-[1-(4-{[(1H-indol-3-ylmethyl)-amino]-methyl}-benzenesulfonyl)-1H-pyrrol-3-yl]-acrylamide]",70 to 5000,
,"O=C(/C=C/c1ccn(S(=O)(=O)c2ccc(-c3ccccc3)cc2)c1)NO [Compound 3, (E)-3-[1-(Biphenyl-4-sulfonyl)-1H-pyrrol-3-yl]-N-hydroxy-acrylamide]",800 to 21600,"IC50 [1]: 850 nM; Effect of combination with Trail (A549 cell line): synergism is highly likely; Neutral & phospholipids (%) ([3]; 0.6 μM): 34.6%; Phospholipids (%) ([3]; 0.6 μM): 62.6%; Neutral & phospholipids (%) ([3]; 1.2 μM): 51.2%; Phospholipids (%) ([3]; 1.2 μM): 45.7%; IC50 [4, 5]: 450 to 15000 nM; IC50 [4, 6]: 150 to 5100 nM"
,"CN(C)c1ccc(S(=O)(=O)n2ccc(/C=C/C(=O)Nc3ccccc3N)c2)cc1 [Compound 8, (E)-N-(2-Amino-phenyl)-3-[1-(4-dimethylamino-benzenesulfonyl)-1H-pyrrol-3-yl]-acrylamide]",800 to 21600,
244.2 to 246.5,"Nc1ccccc1NC(=O)/C=C/c1ccn(S(=O)(=O)c2ccc(-c3ccncc3)cc2)c1 [Compound 20, (E)-N-(2-Amino-phenyl)-3-[1-(4-pyridin-4-yl-benzenesulfonyl)-1H-pyrrol-3-yl]-acrylamide]",70 to 5000,
199.7 to 202.3,"Nc1ccccc1NC(=O)/C=C/c1ccn(S(=O)(=O)c2ccc(-c3cccnc3)cc2)c1 [Compound 21, (E)-N-(2-Amino-phenyl)-3-[1-(4-pyridin-3-yl-benzenesulfonyl)-1H-pyrrol-3-yl]-acrylamide]",70 to 5000,
,"O=C(/C=C/c1ccn(S(=O)(=O)c2ccc(CNCc3ccncc3)cc2)c1)NO [Compound 16, (E)-N-Hydroxy-3-[1-(4-{[(pyridin-4-ylmethyl)-amino]-methyl}-benzenesulfonyl)-1H-pyrrol-3-yl]-acrylamide]",70 to 5000,
219.3 to 221.4,"O=C(/C=C/c1ccn(S(=O)(=O)c2ccc(-c3ccncc3)cc2)c1)NO [Compound 18, (E)-N-Hydroxy-3-[1-(4-pyridin-4-yl-benzenesulfonyl)-1H-pyrrol-3-yl]-acrylamide]",70 to 5000,
160.7 to 166.6,"O=C(/C=C/c1ccn(S(=O)(=O)c2ccc(-n3cccn3)cc2)c1)NO [Compound 25, (E)-N-Hydroxy-3-[1-(4-pyrazol-1-yl-benzenesulfonyl)-1H-pyrrol-3-yl]-acrylamide]",70 to 5000,
,"CC(C)CNCc1ccc(S(=O)(=O)n2ccc(/C=C/C(=O)NO)c2)cc1 [Compound 14, (E)-N-Hydroxy-3-{1-[4-(isobutylamino-methyl)-benzenesulfonyl]-1H-pyrrol-3-yl}-acrylamide]",70 to 5000,
171.3 to 174.7,"Nc1ccccc1NC(=O)/C=C/c1ccn(S(=O)(=O)c2ccc(-c3ccccn3)s2)c1 [Compound 26, (E)-N-(2-Amino-phenyl)-3-[1-(5-pyridin-2-yl-thiophene-2-sulfonyl)-1H-pyrrol-3-yl]-acrylamide]",70 to 5000,
